From patent publication US20250340568A1, “SOLID FORMS OF A MACROCYCLIC COMPOUNDS AS CFTR MODULATORS AND THEIR PREPARATION” (Vertex Pharmaceuticals Incorporated, priority 2022, published 2025) come the findings set out here.

The target in this experiment is T1, CFTR (F508del/MF-HBE cells) (Homo sapiens, UniProt P13569, DEL508-508).
T1 construct: human bronchial epithelial (HBE) cells derived from CF subjects heterozygous for F508del and a minimal function CFTR mutation; endogenous in cells; host or cells: primary human bronchial epithelial cells from CF subjects (F508del/MF genotype), differentiated at air-liquid interface
T1 sequence (P13569 with tags, fused parts or gaps DEL508-508): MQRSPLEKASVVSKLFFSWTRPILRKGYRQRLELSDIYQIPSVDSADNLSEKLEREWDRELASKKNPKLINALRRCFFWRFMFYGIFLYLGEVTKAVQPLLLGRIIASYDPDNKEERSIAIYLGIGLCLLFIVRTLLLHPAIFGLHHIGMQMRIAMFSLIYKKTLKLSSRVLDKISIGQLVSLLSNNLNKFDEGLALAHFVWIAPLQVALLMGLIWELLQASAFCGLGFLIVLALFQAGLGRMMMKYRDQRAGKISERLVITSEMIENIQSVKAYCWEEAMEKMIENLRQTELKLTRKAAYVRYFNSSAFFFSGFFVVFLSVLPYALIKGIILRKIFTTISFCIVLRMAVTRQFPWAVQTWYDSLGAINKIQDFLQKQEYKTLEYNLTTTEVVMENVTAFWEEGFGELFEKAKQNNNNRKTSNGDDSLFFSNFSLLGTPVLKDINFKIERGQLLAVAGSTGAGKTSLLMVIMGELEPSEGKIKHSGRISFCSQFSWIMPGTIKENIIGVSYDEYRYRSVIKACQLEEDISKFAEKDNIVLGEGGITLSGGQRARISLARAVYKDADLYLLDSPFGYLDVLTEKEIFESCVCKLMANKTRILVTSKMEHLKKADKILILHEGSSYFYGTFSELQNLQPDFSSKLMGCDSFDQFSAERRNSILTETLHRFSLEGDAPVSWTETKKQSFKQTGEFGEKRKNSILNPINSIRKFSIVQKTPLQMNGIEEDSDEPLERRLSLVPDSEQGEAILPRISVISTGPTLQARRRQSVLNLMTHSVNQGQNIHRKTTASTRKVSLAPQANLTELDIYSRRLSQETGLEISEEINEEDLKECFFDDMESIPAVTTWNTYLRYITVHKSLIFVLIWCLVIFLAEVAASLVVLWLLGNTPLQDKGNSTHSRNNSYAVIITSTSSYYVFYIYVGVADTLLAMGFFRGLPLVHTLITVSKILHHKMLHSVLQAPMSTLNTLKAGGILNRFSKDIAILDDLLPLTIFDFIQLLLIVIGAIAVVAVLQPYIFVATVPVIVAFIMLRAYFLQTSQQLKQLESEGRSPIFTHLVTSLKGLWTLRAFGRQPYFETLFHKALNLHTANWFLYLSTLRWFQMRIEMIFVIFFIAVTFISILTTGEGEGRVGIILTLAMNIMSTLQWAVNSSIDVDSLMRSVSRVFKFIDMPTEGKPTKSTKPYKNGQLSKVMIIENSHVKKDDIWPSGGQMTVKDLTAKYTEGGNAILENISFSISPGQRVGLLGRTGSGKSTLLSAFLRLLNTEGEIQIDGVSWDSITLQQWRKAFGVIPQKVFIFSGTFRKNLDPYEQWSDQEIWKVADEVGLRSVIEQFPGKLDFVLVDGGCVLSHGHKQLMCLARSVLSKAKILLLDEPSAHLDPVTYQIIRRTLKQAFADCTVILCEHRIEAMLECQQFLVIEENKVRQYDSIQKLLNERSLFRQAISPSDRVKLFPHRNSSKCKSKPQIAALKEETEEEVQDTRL
The experiment in a line: Ussing chamber assay of CFTR-mediated short-circuit currents (potentiator identification). It counts as cell-based. The note with it: incubated 18-24 hours at 37° C. with 10 μM (14S)-8-[3-(2-{dispiro[2.0.2.1]heptan-7-yl}ethoxy)-1H-pyrazol-1-yl]-... trione (Compound VII), 20% human serum, read-out: CFTR-modulating activity EC50. The method, then: Ussing Chamber Assay of CFTR-mediated short-circuit currents
Ussing chamber experiments were performed using human bronchial epithelial (HBE) cells derived from CF subjects heterozygous for F508del and a minimal function CFTR mutation (F508del/MF-HBE) and cultured as previously described (Neuberger T, Burton B, Clark H, Van Goor F Methods Mol Biol 2011:741:39-54). After four days the apical media was removed, and the cells were grown at an air liquid interface for >14 days prior to use.
To isolate the CFTR-mediated short-circuit (ISC) current, F508del/MF-HBE grown on Costar® Snapwell™ cell culture inserts were mounted in an Ussing chamber and the transepithelial ISC was measured under voltage-clamp recording conditions (Vhold=0 mV) at 37° C. The basolateral solution contained (in mM) 145 NaCl, 0.83 K2HPO4, 3.3 KH2PO4, 1.2 MgCl2, 1.2 CaCl2), 10 Glucose, 10 HEPES (pH adjusted to 7.4 with NaOH) and the apical solution contained (in mM) 145 NaGluconate, 1.2 MgCl2, 1.2 CaCl2), 10 glucose, 10 HEPES (pH adjusted to 7.4 with NaOH) and 30 μM amiloride to block the epithelial sodium channel. […] The CFTR-mediated ISC (μA/cm^2) for each condition was determined from the peak forskolin response to the steady-state current following inhibition.
The activity of the CFTR potentiator compounds on the CFTR-mediated ISC was determined in Ussing chamber studies as described above. […]

What is called EC50 is the concentration giving half of the maximal effect. With `CC1(C)CCCCC[C@](O)(C(F)(F)F)C2=NN=C(O2)c2nc(c(C(F)(F)F)cc2N)N1` [Compound I, (6R)-17-amino-12,12-dimethyl-6,15-bis(trifluoromethyl)-19-oxa-3,4,13,18-tetrazatricyclo[12.3.1.12,5]nonadeca-1(18),2,4,14,16-pentaen-6-ol], the EC50 was less than 500 nM.
